Results published in the NIST ThermoML archive (doi:10.1016/j.fluid.2011.02.010).
Numbers after ± are expanded uncertainties.

Key:
[1] = for mass density / viscosity / speed of sound: 101 kPa; for speed of sound: Frequency=2 MHz
[2] = xn = mol fraction of the nth substance listed; details: 101 kPa, Liquid, x2 = 0; for speed of sound: Frequency=2 MHz

Row | Structure (SMILES) | mass density ([1]; 298.15 K, Liquid) [kg/m3] | viscosity ([1]; 298.15 K, Liquid) [mPa·s] | speed of sound ([1]; 298.15 K, Liquid) [m/s] | mass density ([1]; 303.15 K, Liquid) [kg/m3] | viscosity ([1]; 303.15 K, Liquid) [mPa·s] | speed of sound ([1]; 303.15 K, Liquid) [m/s] | mass density ([1]; 308.15 K, Liquid) [kg/m3] | viscosity ([1]; 308.15 K, Liquid) [mPa·s] | speed of sound ([1]; 308.15 K, Liquid) [m/s] | mass density ([1]; 318.15 K, Liquid) [kg/m3] | viscosity ([1]; 318.15 K, Liquid) [mPa·s] | speed of sound ([1]; 318.15 K, Liquid) [m/s] | mass density ([1]; 328.15 K, Liquid) [kg/m3] | viscosity ([1]; 328.15 K, Liquid) [mPa·s] | speed of sound ([1]; 328.15 K, Liquid) [m/s] | speed of sound ([2]; 298.15 K) [m/s] | mass density ([2]; 298.15 K) [kg/m3] | viscosity ([2]; 298.15 K) [mPa·s] | speed of sound ([2]; 303.15 K) [m/s] | mass density ([2]; 303.15 K) [kg/m3] | other results
1 | CCCCn1cc[n+](C)c1.[Cl-] [1-butyl-3-methylimidazolium chloride] | 1074.43 ± 10 | 29.21 ± 1.9 | 1868 ± 11 | 1071.38 ± 10 | 25.72 ± 1.7 | 1860 ± 11 | 1068.32 ± 10 | 21.21 ± 1.4 | 1848 ± 11 | 1062.14 ± 10 | 18.97 ± 1.2 | 1820 ± 11 | 1055.89 ± 10 | 16.74 ± 1.1 | 1804 ± 10 | – | – | – | – | – | –
2 | CC[NH2+]CC.O=S(=O)([O-])O [diethylammonium hydrogen sulfate] | – | – | – | – | – | – | – | – | – | – | – | – | – | – | – | – | – | – | – | – | mass density ([1]; 298.15 K, Metastable liquid): 1028.39 ± 10 kg/m3; viscosity ([1]; 298.15 K, Metastable liquid): 25.8 ± 1.7 mPa·s; speed of sound ([1]; 298.15 K, Metastable liquid): 1432 ± 9 m/s; mass density ([1]; 303.15 K, Metastable liquid): 1023.97 ± 10 kg/m3; viscosity ([1]; 303.15 K, Metastable liquid): 21.3 ± 1.4 mPa·s; speed of sound ([1]; 303.15 K, Metastable liquid): 1408 ± 9 m/s; mass density ([1]; 308.15 K, Metastable liquid): 1020.54 ± 10 kg/m3; viscosity ([1]; 308.15 K, Metastable liquid): 18.1 ± 1.2 mPa·s; speed of sound ([1]; 308.15 K, Metastable liquid): 1392 ± 9 m/s; mass density ([1]; 318.15 K, Metastable liquid): 1012.68 ± 10 kg/m3; viscosity ([1]; 318.15 K, Metastable liquid): 13.61 ± 0.92 mPa·s; speed of sound ([1]; 318.15 K, Metastable liquid): 1356 ± 8 m/s; mass density ([1]; 328.15 K, Metastable liquid): 1004.83 ± 10 kg/m3; viscosity ([1]; 328.15 K, Metastable liquid): 10.2 ± 0.7 mPa·s; speed of sound ([1]; 328.15 K, Metastable liquid): 1324 ± 8 m/s; Normal melting temperature ([1]; Crystal, visual observation): 81.00 ± 1 °C
3 | C[S+](C)[O-] [dimethyl sulfoxide] | 1095.37 ± 10 | 1.99 ± 0.19 | 1496 ± 9 | 1092.41 ± 10 | 1.8 ± 0.17 | 1472 ± 9 | 1086.07 ± 10 | 1.65 ± 0.16 | 1460 ± 9 | 1076.22 ± 10 | 1.38 ± 0.15 | 1428 ± 9 | 1066.09 ± 10 | 1.04 ± 0.13 | 1412 ± 8 | – | – | – | – | – | –
4 | C[S+](C)[O-] [dimethyl sulfoxide] + CCCCn1cc[n+](C)c1.[Cl-] | – | – | – | – | – | – | – | – | – | – | – | – | – | – | – | 1496 ± 9 | 1095.37 ± 10 | 1.99 ± 0.19 | 1472 ± 9 | 1092.41 ± 10 | viscosity ([2]; 303.15 K): 1.8 ± 0.17 mPa·s; speed of sound ([2]; 308.15 K): 1460 ± 9 m/s; mass density ([2]; 308.15 K): 1086.07 ± 10 kg/m3; viscosity ([2]; 308.15 K): 1.65 ± 0.16 mPa·s; speed of sound ([2]; 318.15 K): 1428 ± 9 m/s; mass density ([2]; 318.15 K): 1076.22 ± 10 kg/m3; viscosity ([2]; 318.15 K): 1.38 ± 0.15 mPa·s; speed of sound ([2]; 328.15 K): 1412 ± 8 m/s; mass density ([2]; 328.15 K): 1066.09 ± 10 kg/m3; viscosity ([2]; 328.15 K): 1.04 ± 0.13 mPa·s
5 | C[S+](C)[O-] [dimethyl sulfoxide] + CC[NH2+]CC.O=S(=O)([O-])O | – | – | – | – | – | – | – | – | – | – | – | – | – | – | – | 1496 ± 9 | 1095.37 ± 10 | 1.99 ± 0.19 | 1472 ± 9 | 1092.41 ± 10 | viscosity ([2]; 303.15 K): 1.8 ± 0.17 mPa·s; speed of sound ([2]; 308.15 K): 1460 ± 9 m/s; mass density ([2]; 308.15 K): 1086.07 ± 10 kg/m3; viscosity ([2]; 308.15 K): 1.65 ± 0.16 mPa·s; speed of sound ([2]; 318.15 K): 1428 ± 9 m/s; mass density ([2]; 318.15 K): 1076.22 ± 10 kg/m3; viscosity ([2]; 318.15 K): 1.38 ± 0.15 mPa·s; speed of sound ([2]; 328.15 K): 1412 ± 8 m/s; mass density ([2]; 328.15 K): 1066.09 ± 10 kg/m3; viscosity ([2]; 328.15 K): 1.04 ± 0.13 mPa·s
